Data taken from US9938261B2, “Heterocyclic compounds and methods of use thereof” (AMBIT BIOSCIENCES CORPORATION, priority 2011, dated 2018).

Legend:
M-NFS-60 cells = assay: M-NFS-60 cell proliferation assay (Alamar Blue); assay type: cell-based, mouse; conditions: Mus musculus; 72 hours incubation, M-CSF 20 ng/mL; read-out: CSF1R M-NFS-60 CTB:IC50
Method in brief: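 Mouse M-NFS-60 cells growing on 20 ng/mL M-CSF in RPMI/10% FBS were exposed to compounds (9 half-log concentrations, 0.5% DMSO) for 72 h at 37 °C. Viability read by Alamar Blue fluorescence (ex 560/em 590 nm, 3 h). IC50 = 50% proliferation inhibition versus control, mean of duplicates.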

[1] = biological target: kinase panel containing either 386 or 392 distinct kinases; assay: Kinase selectivity score S10 from competition binding panel; conditions: compounds at 10 μM; 386 or 392 distinct kinases
Description: Competition binding assays used herein were developed, validated and performed as described in Fabian et al., Nature Biotechnology 2005, 23, 329-336. Kinases were produced as fusions to T7 phage (See, Fabian et al. or WO04/015142) or alternatively, the kinases were expressed in HEK-293 cells and subsequently tagged with DNA for PCR detection (See, WO08/005310). For the binding assays, streptavidin-coated magnetic beads were treated with biotinylated affinity ligands for 30 min at room temperature to generate affinity resins. The liganded beads were blocked with excess biotin and washed with blocking buffer (SeaBlock (Pierce), 1% BSA, 0.05% Tween 20, 1 mM DTT) to remove unbound ligand and to reduce non-specific binding. Binding reactions were assembled by combining kinase, liganded affinity beads, and test compounds in 1× binding buffer (20% SeaBlock, 0.17×PBS, 0.05% Tween 20, 6 mM DTT). Test compounds were prepared as 100× stocks in DMSO and diluted into the aqueous environment. Kds were determined using an eleven point threefold serial dilutions. DMSO or control compounds were was added to control assays lacking a test compound. Primary screen assays were performed in polypropylene 384-well plates in a final volume of 20-40 μL, while Kd determinations were performed in polystyrene 96-well plates in a final volume of 135 μL. The assay plates were incubated at room temperature with shaking for 1 hour to allow the binding reactions to reach equilibrium, and the affinity beads were washed extensively with wash buffer (1×PBS, 0.05% Tween 20) to remove unbound protein. The beads were then resuspended in elution buffer (1×PBS, 0.05% Tween […] non-biotinylated affinity ligand) and incubated at room temperature with shaking for 30 min. The kinase concentration in the eluates was measured by quantitative PCR.
A selectivity score (S10) is a quantitative measure of selectivity of a compound against a panel of kinases. An S10 was calculated for a compound by dividing the number of kinases found to have a percent of control (DMSO) less than 10 by the total number of distinct kinases tested (excluding mutant variants). Percent of control (POC) is calculated by subtracting the signal of the control compound (POC=0) from the signal of the test compound and dividing the outcome by the signal of DMSO (POC=100) minus the signal of the control compound. For the compounds disclosed herein, S10 scores were obtained by testing the compounds at 10 μM concentration in a kinase panel containing either 386 or 392 distinct kinases.

CSF1R = CSF1R (Homo sapiens, UniProt P07333); assay: Competition binding assay, CSF1R Kd; design: made in house
Method in brief: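 Compound displacement of kinase from bead-immobilized ligand is measured by qPCR after 1 h equilibration at room temperature. Kinases are T7 phage fusions or DNA-tagged HEK-293 products.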

CSF1R, sequence (P07333 20-972): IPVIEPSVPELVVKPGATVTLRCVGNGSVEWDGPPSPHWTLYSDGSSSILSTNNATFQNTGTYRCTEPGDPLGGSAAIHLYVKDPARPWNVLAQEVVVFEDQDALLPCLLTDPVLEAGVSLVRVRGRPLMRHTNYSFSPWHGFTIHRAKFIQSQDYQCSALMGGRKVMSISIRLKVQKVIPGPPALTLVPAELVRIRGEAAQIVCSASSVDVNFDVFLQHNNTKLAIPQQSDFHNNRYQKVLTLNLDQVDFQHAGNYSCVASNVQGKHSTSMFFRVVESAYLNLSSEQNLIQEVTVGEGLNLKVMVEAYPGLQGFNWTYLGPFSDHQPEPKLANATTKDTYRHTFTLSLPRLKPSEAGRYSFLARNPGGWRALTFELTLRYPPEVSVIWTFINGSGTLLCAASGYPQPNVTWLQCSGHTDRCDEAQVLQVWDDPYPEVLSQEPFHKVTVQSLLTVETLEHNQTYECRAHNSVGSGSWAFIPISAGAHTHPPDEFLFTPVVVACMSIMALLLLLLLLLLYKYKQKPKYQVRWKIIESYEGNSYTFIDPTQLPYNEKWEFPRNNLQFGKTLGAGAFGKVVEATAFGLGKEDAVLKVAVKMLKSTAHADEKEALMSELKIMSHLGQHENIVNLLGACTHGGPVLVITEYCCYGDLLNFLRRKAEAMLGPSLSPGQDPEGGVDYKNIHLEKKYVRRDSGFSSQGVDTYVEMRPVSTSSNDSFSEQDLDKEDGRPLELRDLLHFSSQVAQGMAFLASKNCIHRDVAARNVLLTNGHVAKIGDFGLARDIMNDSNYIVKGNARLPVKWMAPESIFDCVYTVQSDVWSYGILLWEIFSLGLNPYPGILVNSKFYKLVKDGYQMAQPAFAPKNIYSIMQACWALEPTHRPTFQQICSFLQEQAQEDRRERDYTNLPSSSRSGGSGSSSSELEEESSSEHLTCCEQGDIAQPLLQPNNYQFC

| Structure (SMILES) | IC50 (M-NFS-60 cells) [nM] | Kinase specificity S(10) [1] | Kd (CSF1R) [nM] |
| --- | --- | --- | --- |
| COc1cc2ncn(Cc3ccc4nc(N[C@@H]5CCCCC[C@H]5O)sc4c3)c2cc1OC (racemic) [Example 50, (±)-2-((6-((5,6-dimethoxy-1H-benzo[d]imidazol-1-yl)methyl)benzo[d]thiazol-2-yl)amino)cycloheptanol] | ≤ 50 | C (C>0.02) | ≤ 5 |
| CS(=O)(=O)O.O[C@@H]1CCCC[C@H]1Nc1nc2ccc(Cn3cnc4cccnc43)cc2s1 [Example 3, (1R,2R)-2-((6-((3H-imidazo[4,5-b]pyridin-3-yl)methyl)benzo[d]thiazol-2-yl)amino)cyclohexanol methanesulfonic acid] | 50 to 400 | B (0.01<B≤0.02) | ≤ 5 |
| COc1cc2ncn(Cc3ccc4nc(N[C@@H](C)C5CCCCC5)sc4c3)c2cc1OC [Example 33, (S)—N-(1-cyclohexylethyl)-6-((5,6-dimethoxy-1H-benzo[d]imidazol-1-yl)methyl)benzo[d]thiazol-2-amine] | 50 to 400 | C (C>0.02) | 5 to 20 |
| COc1cc2ncn(Cc3ccc4nc(N[C@@H]5CCCC[C@H]5O)oc4c3)c2cc1OC [Example 34, (1R,2R)-2-((6-((5,6-dimethoxy-1H-benzo[d]imidazol-1-yl)methyl)benzo[d]oxazol-2-yl)amino)cyclohexanol] | 50 to 400 | C (C>0.02) | 5 to 20 |
| COc1cc2ncn(Cc3ccc4nc(NCC5CCCCC5)oc4c3)c2cc1OC [Example 35, N-(cyclohexylmethyl)-6-((5,6-dimethoxy-1H-benzo[d]imidazol-1-yl)methyl)benzo[d]oxazol-2-amine] | 50 to 400 | C (C>0.02) | ≤ 5 |
| Cn1cc(-c2cn(Cc3ccc4nc(N[C@@H]5CCCC[C@H]5O)sc4c3)cn2)cn1 [Example 36, (1R,2R)-2-((6-((4-(1-methyl-1H-pyrazol-4-yl)-1H-imidazol-1-yl)methyl)benzo[d]thiazol-2-yl)amino)cyclohexanol] | 50 to 400 | A (A≤0.01) | 5 to 20 |
| CNC(=O)c1cn(Cc2ccc3nc(N[C@@H]4CCCC[C@H]4O)sc3c2)cn1 [Example 37, 1-((2-(((1R,2R)-2-hydroxycyclohexyl)amino)benzo[d]thiazol-6-yl)methyl)-N-methyl-1H-imidazole-4-carboxamide] | > 1500 | A (A≤0.01) | > 50 |
| O[C@@H]1CCCC[C@H]1Nc1nc2ccc(Cc3cnc4ccccn34)cc2s1 [Example 38, (1R,2R)-2-((6-(imidazo[1,2-a]pyridin-3-ylmethyl)benzo[d]thiazol-2-yl)amino)cyclohexanol] | 400 to 1500 | A (A≤0.01) | 20 to 50 |
| Cn1cc(-c2cnc3c(c2)ncn3Cc2ccc3nc(N[C@@H]4CCCC[C@H]4O)sc3c2)cn1 [Example 39, (1R,2R)-2-((6-((6-(1-methyl-1H-pyrazol-4-yl)-3H-imidazo[4,5-b]pyridin-3-yl)methyl)benzo[d]thiazol-2-yl)amino)cyclohexanol] | ≤ 50 | C (C>0.02) | ≤ 5 |
| O[C@@H]1CCCC[C@H]1Nc1nc2ccc(Cn3cnc4cc(-c5cccnc5)cnc43)cc2s1 [Example 40, (1R,2R)-2-((6-((6-(pyridin-3-yl)-3H-imidazo[4,5-b]pyridin-3-yl)methyl)benzo[d]thiazol-2-yl)amino)cyclohexanol] | ≤ 50 | B (0.01<B≤0.02) | ≤ 5 |
| COc1cc2c(cc1Br)ncn2Cc1ccc2nc(N[C@@H]3CCCC[C@H]3O)sc2c1 [Example 41, (1R,2R)-2-((6-((5-bromo-6-methoxy-1H-benzo[d]imidazol-1-yl)methyl)benzo[d]thiazol-2-yl)amino)cyclohexanol] | 50 to 400 | A (A≤0.01) | 5 to 20 |
| O[C@@H]1Cc2ccccc2[C@H]1Nc1nc2ccc(Cn3cnc4cc(Br)cnc43)cc2s1 [Example 42, (1R,2R)-1-((6-((6-bromo-3H-imidazo[4,5-b]pyridin-3-yl)methyl)benzo[d]thiazol-2-yl)amino)-2,3-dihydro-1H-inden-2-ol] | 50 to 400 | B (0.01<B≤0.02) | ≤ 5 |
| N#Cc1cnc2c(c1)ncn2Cc1ccc2nc(N[C@@H]3CCCC[C@H]3O)sc2c1 [Example 43, 3-((2-(((1R,2R)-2-hydroxycyclohexyl)amino)benzo[d]thiazol-6-yl)methyl)-3H-imidazo[4,5-b]pyridine-6-carbonitrile] | 50 to 400 | B (0.01<B≤0.02) | 5 to 20 |
| COc1ccn2c(Cc3ccc4nc(N[C@@H]5CCCC[C@H]5O)sc4c3)cnc2c1 [Example 44, (1R,2R)-2-((6-((7-methoxyimidazo[1,2-a]pyridin-3-yl)methyl)benzo[d]thiazol-2-yl)amino)cyclohexanol] | 50 to 400 | A (A≤0.01) | 5 to 20 |
| O[C@@H]1CCCC[C@H]1Nc1nc2ccc(Cn3cnc4cc(C5CC5)cnc43)cc2s1 [Example 45, (1R,2R)-2-((6-((6-cyclopropyl-3H-imidazo[4,5-b]pyridin-3-yl)methyl)benzo[d]thiazol-2-yl)amino)cyclohexanol] | ≤ 50 | B (0.01<B≤0.02) | ≤ 5 |
| O[C@@H]1Cc2ccccc2[C@H]1Nc1nc2ccc(Cn3cnc4cccnc43)cc2s1 [Example 46, (1R,2R)-1-((6-((3H-imidazo[4,5-b]pyridin-3-yl)methyl)benzo[d]thiazol-2-yl)amino)-2,3-dihydro-1H-inden-2-ol] | 50 to 400 | B (0.01<B≤0.02) | ≤ 5 |
| COc1cc2ncn(Cc3ccc4nc(N[C@@H]5CCCC[C@H]5O)sc4c3)c2cc1Br [Example 47, (1R,2R)-2-((6-((6-bromo-5-methoxy-1H-benzo[d]imidazol-1-yl)methyl)benzo[d]thiazol-2-yl)amino)cyclohexanol] | ≤ 50 | B (0.01<B≤0.02) | 5 to 20 |
| O[C@@H]1CCCC[C@H]1Nc1nc2ccc(Cn3cnc4cncnc43)cc2s1 [Example 48, (1R,2R)-2-((6-((9H-purin-9-yl)methyl)benzo[d]thiazol-2-yl)amino)cyclohexanol] | 50 to 400 | A (A≤0.01) | 5 to 20 |
| COc1cc2c(cc1Br)ncn2Cc1ccc2nc(N[C@@H]3c4ccccc4C[C@H]3O)sc2c1 [Example 49, (1R,2R)-1-((6-((5-bromo-6-methoxy-1H-benzo[d]imidazol-1-yl)methyl)benzo[d]thiazol-2-yl)amino)-2,3-dihydro-1H-inden-2-ol] | 50 to 400 | A (A≤0.01) | 5 to 20 |
| COc1cc2c(cc1-c1cnn(C)c1)ncn2Cc1ccc2nc(N[C@@H]3CCCC[C@H]3O)sc2c1 [Example 51, (1R,2R)-2-((6-((6-methoxy-5-(1-methyl-1H-pyrazol-4-yl)-1H-benzo[d]imidazol-1-yl)methyl)benzo[d]thiazol-2-yl)amino)cyclohexanol] | ≤ 50 | C (C>0.02) | ≤ 5 |
| COc1cc2ncn(Cc3ccc4nc(N[C@@H]5CCCC[C@H]5O)sc4c3)c2cc1-c1cnn(C)c1 [Example 52, (1R,2R)-2-((6-((5-methoxy-6-(1-methyl-1H-pyrazol-4-yl)-1H-benzo[d]imidazol-1-yl)methyl)benzo[d]thiazol-2-yl)amino)cyclohexanol] | 50 to 400 | C (C>0.02) | ≤ 5 |
| COc1cc2ncn(Cc3ccc4nc(N[C@@H]5CCCC[C@H]5O)sc4c3)c2cc1C#N [Example 53, 1-((2-(((1R,2R)-2-hydroxycyclohexyl)amino)benzo[d]thiazol-6-yl)methyl)-5-methoxy-1H-benzo[d]imidazole-6-carbonitrile] | ≤ 50 | B (0.01<B≤0.02) | 5 to 20 |
